Experimental findings from patent US7192977B2, “Benz-indole and benzo-quinoline derivatives as prodrugs for tumor treatment” (School of Pharmacy, priority 2001, dated 2007) are described below.

Marks after values point to notes of the source that are not given here.

One may read the IC50 as the point on the concentration scale where inhibition reaches its midpoint. Read a high IC50 as weaker potency.

The subject of this series is Chinese Hamster Ovary (CHO) cell. Briefly: MTT cytotoxicity in CHO cells of the test compound with and without activation by NADPH-supplemented rat liver microsomes. Type of series: cell-based. As to conditions: for IC50: Cricetulus griseus, CHO, cells exposed 24 hours, MTT, mean+sd for three experiments. How it is done: Test compound activation by CYP enzymes was carried out using NADPH supplemented rat liver microsomes. Incubation mixtures comprised microsomal protein (1 mg/ml), reduced-nicotinamide adenine dinucleotide phosphate (NADPH, 10 mM) and phosphate buffer (pH7.4, 100 mM). Test compound (0.01–100 μM final concentration) in DMSO (20 μl) was added to the microsomal incubation mixtures (0.5 ml) and incubated for 60 min at 37 C. Control incubates contained test compound and microsomal incubation mixture terminated at 0 time. All incubations were terminated by addition of an equal volume of ice-cold acetonitrile and microfuged for 3 min. Aliquots of the supernatant were added to cells in culture and cytotoxicity determined as described below.
Chinese Hamster Ovary (CHO) cell were grown in MEM supplemented with 10% dialysed FBS and G418 (400 μg/ml). All cells were seeded at an initial density of 1000 cells/well in 96-well-plates, incubation at 37° C. for 24 hours. Aliquots (0.1 ml) of the test compound/microsomal/acetonitrile supernatnant was then added to the CHO cells. Cells were then incubated for 24 hours at 37° C., 5% CO2. After this time period MTT (50 μl; 2 mg/ml stock solution) was added to each well and cells were incubated for a further 4 hours. During this time period MTT, a hydrogen acceptor tetrazolium salt, is reduced to formazan dye by mitochondrial dehydrogenase of viable cells. The media was aspirated from cells and DMSO (100 μl/well) added to solubilise the coloured formazan dye. Absorbance of the formazan dye in the 96-well-plates was then determined at 550 nm. The effect of microsomal activation by the test compound on the arrest of CHO cell growth could be determined by comparing the IC50 (concentration that inhibited cell growth by 50%) with and without microsomal incubation.

Take `COc1ccc2[nH]c(C(=O)N3CC(CCl)c4c3ccc3ccccc43)cc2c1` (stereo not drawn) [Compound 1.8, 1-(Chloromethyl)-3-[(5-methoxyindol-2-yl)carbonyl]-1,2-dihydro-3H-benz[e]indole]: the IC50 runs as follows: (control incubate terminated at 0 time (no microsomal activation)) 1.5 ± 0.53 µM; (supernatant after 60 min incubation with NADPH fortified rat liver microsomes) 0.1 µM. In addition, the “AF (activity factor, ratio of IC50 cytotoxicity values)” value (ratio of CHO IC50 without and with microsomal activation) is on record as 15.0*.
